Each structure is given as a SMILES string.

The test system of test [1] is 3T3-L1 pre-adipocyte cells. Briefly: Inhibition of lipid accumulation in differentiated adipocytes (Oil Red O). The test is classed as cell-based, mouse. The settings on record: Homo sapiens, 3T3-L1 adipocytes. The protocol: One hundred thousand 3T3-L1 […] pre-adipocyte cells in Dulbecco's Modified Eagles Medium (DMEM) containing 10% Fetal Bovine Serum (FBS) were taken into each well of a 24-well plate and incubated for 48 h at 37° C. and 5% CO2. The differentiation of pre-adipocyte cells was initiated in a differentiation medium containing 10 μg/ml insulin, 1.0 μM dexamethasone, and 0.5 mM isobutylmethylxanthine (IBMX) for 48 h. After this the medium was replaced by DMEM containing 10 ug/ml insulin and incubated for 3 days. Then the differentiating cells were treated with […] of 7-hydroxyfrullanolide (1) or different natural analogs (structure numbers 3 to 11) or semi-synthetic analogs (structure numbers 12 to 25) of 7-HF. The cells were maintained in the medium for another 3-5 days. The cells incubated with 0.1% DMSO were considered as the vehicle control. After the incubation period, cells were washed with phosphate buffered saline (PBS) and fixed with 10% buffered formalin for 1 h at room temperature. One small aliquot of cell suspension was separated for cell counting in hemocytometer chamber. Fixed cells were stained with Oil Red O solution to measure the cellular neutral lipid accumulation. Briefly, cells were washed with PBS, fixed with 10% buffered formalin and stained with Oil Red O solution (0.5 g in 100 ml isopropanol) for […]. After removing the staining solution, the dye retained in the cells will be eluted into isopropanol and OD measured at 550 nm. The inhibition of fat accumulation in the treated cells was compared with the mock treated differentiated adipocytes. The treated and control cells were also analyzed and compared for inhibition of lipid accumulation visually under microscope and recorded digitally in suitable image capture system. The anti-adipogenic activity by 7-HF is depicted in Figure I and the percentage inhibition of lipid accumulation shown by 7-HF and its natural and semi-synthetic analogs is summarized in Table-1.

For a further test, the system named is CD36. Kind of test: Immunoblot of CD36 expression in high glucose induced J774 macrophage cells. The test is classed as cell-based, mouse. The settings on record: 1 μg/ml; 600 mg/dL glucose, 5 days. The protocol:
Experimental protocol: This was evaluated in glucose induced J774, mouse macrophage cells. Briefly, the cells were cultured in DMEM with 2 mM Glutamine, 100 U/mL penicillin, […] streptomycin and 10% fetal bovine serum (Hyclone, Logan, Utah). Equal number of cells was seeded into 35 mm petri dishes (Corning, USA) one day before the experiment. The culture media was replaced with fresh, glucose free DMEM supplemented with 10% fetal bovine serum. 7-HF was diluted at […] and all cultures were pre-incubated for 2 hours at 5% CO2 at 37° C., and then incubated with 600 mg/dL of glucose for 5 days. Representative photomicrographs showing inhibition of lipid accumulation by 7-HF in high glucose induced macrophage cells of an in vitro model of atherosclerosis are shown in Figure IV. The control culture was supplemented with 100 mg/dL glucose. […] Protein concentration was measured by Bradford method.
Inhibition of CD36 protein expression in high glucose induced J774 macrophage cells in presence or absence of 7-HF was evaluated in immunoblot assay. […] Finally, the specific immuno-reactive bands were developed with West-pico chemiluminescent substrate (Pierce Biotechnology, IL, USA), and the immunoblot images were recorded in a Kodak Image Station (Kodak, USA). Band intensities were calculated densitometrically and normalized with expression of actin in respective samples.
For orientation: A western blot detects proteins with antibodies after separation by electrophoresis.

In a further test the test system is human endothelial cells. Kind of test: Nitrite assay (Griess reagent), nitric oxide production. The test is classed as cell-based. The settings on record: 0.1, 0.25, 0.50, 1.00 ng/ml; 24 h. As to the method:
Equal number (5000 cells) of human endothelial cells was plated in each well of a 96-well cell culture plate. The cells were treated with various concentrations (0.1, 0.25, 0.5 and 1.0 ng/ml) of 7-HF for 24 h. The control cultures received 0.01% (v/v) DMSO as the vehicle. After 24 h, the culture supernatants were collected and mixed with equal volume of Griess reagent [1:1 mixture of NED solution (0.1% N-1-napthylethulenediamine dihydrochloride in water) and Sulfanylamide solution (1% sulfanilamide in 5% phosphoric acid)]. The reaction was allowed for 10 min at room temperature. Finally, the color reaction was read at 550 nm in a micro-plate reader (BioRad, USA). Known concentrations of sodium nitrite were reacted to obtain a standard curve. Modulation of nitrite production in 7-HF treated cultures was quantitatively assessed by extrapolating the absorbance readings obtained from the test samples into the standard plot.

The test system of a further test is PTP-1B. Kind of test: PTP-1B activity in 3T3-L1 cell lysates (pNPP hydrolysis). Type of test: cell-based, mouse. The settings on record: 1.0 or 2.5 μg/ml; 48 h. As to the method: Equal number of 3T3-L1 mouse preadipocytes was seeded into cell culture dishes. After 24 h, the cells were treated either with different concentrations of 7-HF or […] Sodium vanadate ([…]) for further 48 h. Thereafter, the washed cells were lysed with cell lysis buffer and the clarified at 14,000 g for 10 min at 4° C. The protein concentrations were calculated by Bradford method and the cell lysates were reacted with equal volume of substrate reagent containing 10 mM p-nitrophenyl phosphate (pNPP). After 1 h incubation at 37° C., the reaction was stopped with 1N NaOH and the developed color was read at 405 nm. The specific enzyme activity was calculated by using an extinction coefficient of 1.78×10^4 M^−1cm^−1 for pNPP at A405. The inhibition shown by 7-HF is depicted in Figure VII.

Usually inhibition stands for the change of the read-out against control, counted positive when it falls. In test [1] (1.0 μg/mL), `C=C1C(=O)O[C@H]2C3=C(C)CCC[C@]3(C)CC[C@@]12O` [7-HF (1), 7-hydroxyfrullanolide] came in with an inhibition at 1 µg/mL of 52.5%. For the same compound, in test [1] (2.5 μg/mL), testing at 2.5 µg/mL gave an inhibition of 63.5%. Besides, the “CD36 levels in high glucose induced macrophage cells” value with CD36 is given as “reduced back towards their base values”. Also, the “NO concentration (nitrite) in cell culture supernatant” value in the test with human endothelial cells was “significant and dose dependent increase”. Also, the PTP-1B activity entry with PTP-1B is “significant inhibition”.

The record behind these values is patent US20130136809A1, “7-HYRDROXYFRULLANOLIDE ITS ANALOGS FOR PREVENTION CONTROL AND TREATMENT OF METABOLIC DISORDERS” (LAILA NUTRACEUTICALS, priority 2009, published 2013).
